In patent publication US20260232662A1, “MIR-124 INDUCER, AND PREPARATION METHOD THEREFOR AND USE THEREOF” (NANJING SYNNOCARE PHARMACEUTICAL TECHNOLOGY CO., LTD., priority 2023, published 2026):

system: miR-124; assay: Induction of miR-124 expression in PBMC cells (qPCR); type: cell-based; conditions: Homo sapiens, 72 h, 0.1 μM compound, human PBMCs stimulated with PMA/ionomycin, miR-191 reference gene, read-out: miR-124 expression, Fold change vs DMSO
Protocol: This study evaluated the ability of the compound of the present invention to influence miR-124 transcriptional activity in vitro. The experiment analyzed miR-124 expression in human PBMCs (Sailybio) using quantitative PCR (qPCR).
Thawed human PBMCs (1 mL) were added to 19 mL of culture medium (RPMI1640+10% hFBS+1‰ 2-mercaptoethanol) and the PBMCs were incubated in a cell culture incubator for 30 minutes. The PBMCs were collected and the cells (3.0*10^6 cells/well/3 mL) were resuspended in medium containing PMA (10 ng/mL; Invivogen) and ionomycin (200 ng/mL; Invivogen). The cells were incubated in a 6-well plate for 48 hours. Diluted compound was added to the cells to achieve a final concentration of 0.1 μM. After 72 hours, the samples were centrifuged and the cells were collected.
Total miRNA was extracted from the cells using the MiPure Cell/Tissue miRNA Kit (Vazyme) according to the manufacturer's instructions, followed by purification. The purified samples were treated with genomic DNA elimination buffer, and reverse transcription was performed using a GeneAmp PCR System. The resulting cDNA was subjected to quantitative real-time PCR (qPCR) analysis on a QuantStudio™ 7 Flex Real-Time PCR System. Data analysis was performed using the QuantStudio 7 software with default settings to automatically determine Ct values, and the results were exported. In this assay, miR-191 was used as the reference gene, and the DMSO-treated group served as the control. The relative expression of miR-124 was calculated using the following formula: […]

Compound | fold induction at 0.1 µM
Fc1cc(NC2=Nc3c(Cl)cccc3N3CCN=C23)ccc1C(F)(F)F [Compound 69] | 22.9
Cn1c(=O)c(Nc2ccc(C(F)(F)F)cc2)nc2c(Cl)cccc21 [Compound 11] | 18.4
FC(F)(F)Sc1ccc(Nc2nc3cc(Cl)cc(Cl)c3n3ccnc23)cc1 [Compound B99, 7,9-dichloro-N-(4-(trifluoromethylthio)phenyl) imidazolo[1,2-a] quinoxalin-4-amine] | 17.6
Fc1cc(Nc2nc3cc(Cl)cc(F)c3n3ccnc23)ccc1C(F)(F)F [Compound B91, 7-chloro-9-fluoro-N-(3-fluoro-4-(trifluoromethyl)phenyl) imidazolo[1,2-a] quinoxalin-4-amine] | 25.7
Fc1cc(Cl)cc2c1nc(Nc1ccc3c(c1)OC(F)(F)O3)c1nccn12 [Compound 55] | 22.3
Fc1cc(Nc2nc3ccc(Cl)cc3n3ccnc23)ccc1OC(F)(F)F [Compound B101, 8-chloro-N-(3-fluoro-4-(trifluoromethoxy)phenyl) imidazolo[1,2-a] quinoxalin-4-amine] | 24.7
FC(F)(F)c1ccc(NC2=Nc3ccc(Cl)cc3N3CCN=C23)cc1Cl [Compound B147, 8-chloro-N-(3-chloro-4-(trifluoromethyl)phenyl)-1,2-dihydroimidazo[1,2-a] quinoxalin-4-amine] | 27.9
Fc1cc(Cl)cc2c1N=C(Nc1ccc(C(F)(F)F)cc1)C1=NCCN12 [Compound 95] | 27
Fc1cc(Nc2nc3c(Br)cccc3n3ccnc23)ccc1OC(F)(F)F [Compound 49] | 19.5
Fc1cc(NC2=Nc3ccc(Cl)cc3N3CCN=C23)ccc1C(F)(F)F [Compound B146, 8-chloro-N-(3-Fluoro-4-(trifluoromethyl)phenyl)-1,2-dihydroimidazo[1,2-a] quinoxalin-4-amine] | 28.7
Fc1cccc2nc(Nc3ccc4c(c3)OC(F)(F)O4)c3nccn3c12 [Compound B75, 9-fluoro-N-(2,2-difluorobenzo[d] [1,3]dihydroxy-5-yl) imidazolo[1,2-a] quinoxalin-4-amine] | 29.5
Fc1cc(Cl)c2c(c1)nc(Nc1ccc(OC(F)(F)F)cc1)c1nccn12 [Compound B22, 9-chloro-7-fluoro-N-(4-(trifluoromethoxy)phenyl)imidazolo [1,2-a]quinoxalin-4-amine] | 32.5
FC1(F)Cc2cc(Nc3nc4c(Cl)cccc4n4ccnc34)ccc2O1 [Compound 39, 6-Chloro-N-(2,2-difluoro-2,3-dihydrobenzofuran-5-yl) imidazolo [1,2-a] quinoxalin-4-amine] | 16.8
Fc1cc(Cl)cc2c1N1CCN=C1C(Nc1ccc(OC(F)(F)F)c(Cl)c1)=N2 [Compound B132, 7-chloro-N-(3-chloro-4-(trifluoromethoxy)phenyl)-9-fluoro-1,2-dihydroimidazo[1,2-a] quinoxalin-4-amine] | 27.6
FC(F)(F)c1ccc(NC2=Nc3ccc(Cl)cc3N3CCN=C23)cc1 [Compound B145, 8-chloro-N-(4-(trifluoromethyl)phenyl)-1,2-dihydroimidazo[1,2-a] quinoxalin-4-amine] | 30
Fc1cc2nc(Nc3ccc(OC(F)(F)F)cc3)c3nccn3c2cc1Cl [Compound B25, 8-chloro-7-fluoro-N-(4-(trifluoromethoxy)phenyl)imidazolo [1,2-a]quinoxalin-4-amine] | 23.4
FC(F)(F)Oc1ccc(Nc2nc3cccc(Cl)c3n3ccnc23)cc1Cl [Compound B56, 9-chloro-N-(3-chloro-4-(trifluoromethoxy)phenyl)imidazolo [1,2-a]quinoxalin-4-amine] | 40.7
Cn1c(=O)c(Nc2ccc(OC(F)(F)F)cc2)nc2c(Cl)cccc21 [Compound 1, 5-Chloro-1-methyl-3-((4-(trifluoromethoxy)phenyl)amino) quinoxalin-2(1H)-one] | 16
Fc1cccc2c1N=C(Nc1ccc(OC(F)(F)F)cc1)C1=NCCN12 [Compound 73] | 8.59
Fc1cc(NC2=Nc3c(Br)cccc3N3CCN=C23)ccc1OC(F)(F)F [Compound 83] | 18.3
Fc1cc(NC2=Nc3c(F)cc(Cl)cc3N3CCN=C23)ccc1OC(F)(F)F [Compound 92] | 18.8
Fc1ccc2nc(Nc3ccc(OC(F)(F)F)cc3)c3nccn3c2c1Cl [Compound B17, 9-chloro-8-fluoro-N-(4-(trifluoromethoxy)phenyl)imidazolo [1,2-a]quinoxalin-4-amine] | 31.9
FC1(F)Oc2ccc(Nc3nc4cc(Cl)cc(Cl)c4n4ccnc34)cc2O1 [Compound B93, 7,9-dichloro-N-(2,2-difluorobenzo [d][1,3]dihydroxy-5-yl) imidazolo[1,2-a] quinoxalin-4-amine] | 19.1

Compound | fold induction at 0.1 µM
FC(F)(F)Oc1ccc(Nc2nc3c(Cl)cccc3n3cnnc23)cc1 [Compound 6] | 11.9
FC(F)(F)Oc1ccc(NC2=Nc3cccc(Cl)c3N3CCN=C23)cc1Cl [Compound B120, 9-chloro-N-(3-chloro-4-(trifluoromethoxy)phenyl)-1,2-dihydroimidazo[1,2-a] quinoxalin-4-amine] | 22.6
Fc1cc(Nc2nc3c(Br)cccc3n3ccnc23)ccc1C(F)(F)F [Compound 52] | 22.3
Fc1cc(Nc2nc3cc(Cl)ccc3n3ccnc23)ccc1OC(F)(F)F [Compound B107, 7-chloro-N-(3-fluoro-4-(trifluoromethoxy)phenyl) imidazolo[1,2-a] quinoxalin-4-amine] | 24.4
FC(F)(F)c1ccc(Nc2nc3cc(Cl)cc(Cl)c3n3ccnc23)cc1 [Compound B96, 7,9-dichloro-N-(4-(trifluoromethyl)phenyl) imidazolo[1,2-a] quinoxalin-4-amine] | 23.2
Fc1cc(Cl)cc2c1nc(Nc1ccc(OC(F)(F)F)cc1)c1nccn12 [Compound 54] | 14.9
FC(F)(F)Oc1ccc(NC2=Nc3cc(Cl)cc(Cl)c3N3CCN=C23)cc1 [Compound B136, 7,9-dichloro-N-(4-(trifluoromethoxy)phenyl)-1,2-dihydroimidazo[1,2-a] quinoxalin-4-amine] | 34.1
Cn1c(=O)c(Nc2ccc(SC(F)(F)F)cc2)nc2c(Cl)cccc21 [Compound 10] | 15.4
FC1(F)Oc2ccc(Nc3nc4c(Cl)cccc4n4ccnc34)cc2O1 [Compound 17] | 19
Fc1cc(Cl)cc2c1nc(Nc1ccc(C(F)(F)F)cc1)c1nccn12 [Compound 58] | 27.3
Fc1cccc2nc(Nc3ccc(OC(F)(F)F)c(Cl)c3)c3nccn3c12 [Compound B77, 9-fluoro-N-(3-chloro-4-(trifluoromethoxy)phenyl) imidazolo[1,2-a]quinoxalin-4-amine] | 23.1
Fc1cc(NC2=Nc3c(Br)cccc3N3CCN=C23)ccc1C(F)(F)F [Compound 81] | 15.3
Fc1cc(Br)cc2nc(Nc3ccc(OC(F)(F)F)cc3)c3nccn3c12 [Compound B32, 7-bromo-9-fluoro-N-(4-(trifluoromethoxy)phenyl)imidazolo [1,2-a]quinoxalin-4-amine] | 19.7
Fc1cc(Nc2nc3ccc(Cl)cc3n3ccnc23)ccc1C(F)(F)F [Compound B104, 8-chloro-N-(3-fluoro-4-(trifluoromethyl)phenyl) imidazolo[1,2-a] quinoxalin-4-amine] | 28.1
FC1(F)Oc2ccc(Nc3nc4c(Cl)cccc4n4ccnc34)cc2C1(F)F [Compound 40, 6-Chloro-N-(2,2,3,3-tetrafluoro-2,3-dihydrobenzofuran-5-yl) imidazolo [1,2-a] quinoxalin-4-amine] | 17.5
FC(F)(F)c1ccc(NC2=Nc3cc(Cl)cc(Cl)c3N3CCN=C23)cc1Cl [Compound B141, 7,9-dichloro-N-(3-chloro-4-(trifluoromethyl)phenyl)-1,2-dihydroimidazo[1,2-a] quinoxalin-4-amine] | 36.2
Fc1cc(Nc2nc3c(F)cccc3n3ccnc23)ccc1C(F)(F)F [Compound 46] | 9.99
FC(F)(F)Oc1ccc(Nc2nc3cc(Cl)cc(Cl)c3n3ccnc23)cc1Cl [Compound B95, 7,9-dichloro-N-(3-chloro-4-(trifluoromethoxy)phenyl) imidazolo[1,2-a] quinoxalin-4-amine] | 24.8
Fc1cc(Cl)cc2nc(Nc3ccc(OC(F)(F)F)c(Cl)c3)c3nccn3c12 [Compound B89, 7-chloro-9-fluoro-N-(3-chloro-4-(trifluoromethoxy)phenyl) imidazolo[1,2-a] quinoxalin-4-amine] | 22.3
Fc1cc(Nc2nc3c(Cl)cccc3n3ccnc23)ccc1C(F)(F)F [Compound 28] | 10.4
FC(F)(F)Oc1ccc(Nc2nc3c(Cl)cc(Cl)cc3n3ccnc23)cc1 [Compound 61] | 12.1
Fc1cc(Nc2nc3cccc(F)c3n3ccnc23)ccc1C(F)(F)F [Compound B79, 9-fluoro-N-(3-fluoro-4-(trifluoromethyl)phenyl) imidazolo[1,2-a] quinoxalin-4-amine] | 22.3
